In the NIST ThermoML archive (doi:10.1021/je400468z):
“And” between values parts separate entries of the source, which are not always exact repeats. Equal values may be shown once. Numbers after ± are expanded uncertainties.

Test: relative permittivity at various frequencies (dimensionless)
Conditions: Liquid, Frequency=0.001 MHz, Coaxial cylinder capacitor

Compound CCCCCCC [heptane] has a relative permittivity (303.56 K, 320.13 kPa) of 1.90973 ± 0.00074, a relative permittivity (303.56 K, 1121.5 kPa) of 1.91097 ± 0.00073 and a relative permittivity (303.56 K, 5049.5 kPa) of 1.9172 ± 0.00073. It also gave a relative permittivity (303.56 K, 10111 kPa) of 1.92498 ± 0.00073, a relative permittivity (303.56 K, 20218 kPa) of 1.93899 ± 0.00074 and a relative permittivity (303.56 K, 20219 kPa) of 1.93899 ± 0.00074. For the same compound, the relative permittivity (303.56 K, 30315 kPa) was 1.95162 ± 0.00073, the relative permittivity (303.56 K, 30317 kPa) was 1.95171 ± 0.00073 and the relative permittivity (303.56 K, 40408 kPa) was 1.96324 ± 0.00073. For the same compound, the relative permittivity (303.56 K, 50515 kPa) was 1.97403 ± 0.00075, the relative permittivity (303.56 K, 60608 kPa) was 1.98391 ± 0.00075 and the relative permittivity (333.15 K, 327.25 kPa) was 1.86971 ± 0.00075. It also gave a relative permittivity (333.15 K, 1134.1 kPa) of 1.87125 ± 0.00074, a relative permittivity (333.15 K, 5058.1 kPa) of 1.87892 ± 0.00074 and a relative permittivity (333.15 K, 5509 kPa) of 1.87899 ± 0.00074. For the same compound, the relative permittivity (333.15 K, 10118 kPa) was 1.88834 ± 0.00073, the relative permittivity (333.15 K, 10122 kPa) was 1.88832 ± 0.00073 and the relative permittivity (333.15 K, 20230 kPa) was 1.90484 ± 0.00074. It also gave a relative permittivity (333.15 K, 20232 kPa) of 1.90482 ± 0.00074, a relative permittivity (333.15 K, 30327 kPa) of 1.91942 ± 0.00074 and a relative permittivity (333.15 K, 30328 kPa) of 1.91944 ± 0.00074. The relative permittivity (333.15 K, 40419 kPa) was 1.93256 ± 0.00073, the relative permittivity (333.15 K, 50511 kPa) was 1.9444 ± 0.00073 and the relative permittivity (333.15 K, 60625 kPa) was 1.95543 ± 0.00075. The relative permittivity (363.01 K, 328.75 kPa) was 1.82615 ± 0.00073, the relative permittivity (363.01 K, 1138 kPa) was 1.82815 ± 0.00073 and the relative permittivity (363.01 K, 5057.6 kPa) was 1.83786 ± 0.00072. For the same compound, the relative permittivity (363.01 K, 5062.5 kPa) was 1.83787 ± 0.00072, the relative permittivity (363.01 K, 10125 kPa) was 1.84924 ± 0.00074 and the relative permittivity (363.01 K, 20232 kPa) was 1.86884 ± 0.00073 and 1.86885 ± 0.00073. It also gave a relative permittivity (363.01 K, 30330 kPa) of 1.8855 ± 0.00072, a relative permittivity (363.01 K, 30332 kPa) of 1.88575 ± 0.00072 and a relative permittivity (363.01 K, 40413 kPa) of 1.90054 ± 0.00074. It also gave a relative permittivity (363.01 K, 50513 kPa) of 1.9141 ± 0.00073, a relative permittivity (363.01 K, 60612 kPa) of 1.9264 ± 0.00073 and a relative permittivity (363.01 K, 60613 kPa) of 1.92636 ± 0.00073.
